Measurements taken from ChEMBL document CHEMBL3085636, “Further optimization of plakortin pharmacophore: structurally simple 4-oxymethyl-1,2-dioxanes with promising antimalarial activity” (Eur J Med Chem, 2013).

Assays:
[1] = system: Plasmodium falciparum; assay: Antimalarial activity against chloroquine-sensitive Plasmodium falciparum D10 after 72 hrs by parasite lactate dehydrogenase assay; type: functional, organism-based; conditions: D10, 72 h
[2] = system: Plasmodium falciparum; assay: Antimalarial activity against chloroquine-resistant Plasmodium falciparum W2 after 72 hrs by parasite lactate dehydrogenase assay; type: functional, organism-based; conditions: W2, 72 h

Compound	IC50 [1] [µM]	IC50 [2] [nM]
COC[C@H]1CC(C)(C)OO[C@]1(C)OC	> 30	> 30000
CCCC[C@@]1(OC)OOC(C)(C)C[C@@H]1COC	8.6	2800
CCCCC1(CCCC)C[C@H](COC)[C@](CCCC)(OC)OO1		700
CCCC[C@]1(C)C[C@H](CO)[C@@](CCCC)(OC)OO1	> 30	11200
CCCC[C@@]1(C)C[C@H](COC)[C@](CCCC)(OC)OO1	0.9	700
CCCC[C@]1(C)C[C@H](CO)[C@](CCCC)(OC)OO1	5.4	1900
COC[C@H]1CC(C)(C)OO[C@@]1(C)OC	> 30	> 30000
CCCC[C@@]1(OC)OOC(C)(C)C[C@@H]1CO	17.2	7300
CCCC[C@]1(C)C[C@H](COC)[C@](CCCC)(OC)OO1	0.8	500
CCCCC1(CCCC)C[C@H](COC)[C@](C)(OC)OO1		1700
CCCC[C@]1(OC)OOC(C)(C)C[C@@H]1COC	> 30	> 30000
CCCCC1(CCCC)C[C@H](COC)[C@@](CCCC)(OC)OO1		1000
CCCC[C@]1(C)C[C@H](COC)[C@@](CCCC)(OC)OO1	4.3	2000
CCCCC1(CCCC)C[C@H](CO)[C@](CCCC)(OC)OO1	4	1600
CCCC[C@@]1(C)C[C@H](CO)[C@](CCCC)(OC)OO1	6	2300
CCCCC1(CCCC)C[C@H](CO)[C@@](CCCC)(OC)OO1	2.4	1000
CCCC[C@@]1(C)C[C@H](COC)[C@@](CCCC)(OC)OO1	2.3	1200
CCCCC1(CCCC)C[C@H](COC)[C@@](C)(OC)OO1		1500
